Assay results: ChEMBL document CHEMBL1129066, “Novel terphenyls as selective cyclooxygenase-2 inhibitors and orally active anti-inflammatory agents” (J Med Chem, 1996)

Columns and labels:
[1] = target: Prostaglandin G/H synthase 1 (Homo sapiens, UniProt P23219)
Rattus norvegicus [2] = organism: Rattus norvegicus; experiment: animal or person; assay type: functional
Rattus norvegicus [3] = organism: Rattus norvegicus; experiment: animal or person; assay type: functional; remark: listed apart in the source
Rattus norvegicus [4] = organism: Rattus norvegicus; experiment: animal or person; assay type: functional; remark: listed apart in the source
Rattus norvegicus [5] = organism: Rattus norvegicus; experiment: animal or person; assay type: functional; remark: listed apart in the source

Chain of Prostaglandin G/H synthase 1 (P23219 whole entry): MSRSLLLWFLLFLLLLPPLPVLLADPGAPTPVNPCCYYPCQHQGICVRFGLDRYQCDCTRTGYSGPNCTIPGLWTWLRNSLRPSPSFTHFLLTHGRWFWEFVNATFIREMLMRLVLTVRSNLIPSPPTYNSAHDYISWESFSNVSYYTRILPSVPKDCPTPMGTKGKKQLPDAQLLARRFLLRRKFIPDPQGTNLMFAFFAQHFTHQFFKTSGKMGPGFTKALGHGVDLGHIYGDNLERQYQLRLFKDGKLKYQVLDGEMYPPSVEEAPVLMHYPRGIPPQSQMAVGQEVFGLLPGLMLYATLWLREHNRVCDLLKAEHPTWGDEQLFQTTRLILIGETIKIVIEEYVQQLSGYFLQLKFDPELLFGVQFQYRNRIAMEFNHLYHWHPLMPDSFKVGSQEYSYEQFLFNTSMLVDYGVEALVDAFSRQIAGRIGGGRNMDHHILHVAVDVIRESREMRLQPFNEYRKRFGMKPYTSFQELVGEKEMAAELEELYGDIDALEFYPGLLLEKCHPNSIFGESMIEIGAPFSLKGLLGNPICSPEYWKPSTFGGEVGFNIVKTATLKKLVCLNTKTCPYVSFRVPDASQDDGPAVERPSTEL

Row | IC50 [1] [µM] | Structure (SMILES) | other results
1 | > 100 | CS(=O)(=O)c1ccc(-c2cc3ccccc3cc2-c2ccc(F)cc2)cc1 | –
2 | – | NS(=O)(=O)c1ccc(-c2ccccc2-c2ccc(F)cc2)cc1 | ED50 (Rattus norvegicus [2]): > 50 mg/kg; ED50 (Rattus norvegicus [3]): 1.5 mg/kg
3 | – | CS(=O)(=O)c1ccc(-c2cc3c(cc2-c2ccc(F)cc2)OCO3)cc1 | inhibition in vivo at 2 mg/kg (Rattus norvegicus [4]): 0%
4 | – | NS(=O)(=O)c1ccc(-c2cc3c(cc2-c2ccc(F)cc2)OCO3)cc1 | inhibition in vivo at 2 mg/kg (Rattus norvegicus [4]): 26%
5 | – | NS(=O)(=O)c1ccc(-c2cc(F)c(F)cc2-c2ccc(F)c(Cl)c2)cc1 | ED50 (Rattus norvegicus [5]): 38.7 mg/kg; ED50 (Rattus norvegicus [3]): 0.05 mg/kg
6 | > 100 | CS(=O)(=O)c1ccc(-c2c(F)c(F)c(F)c(F)c2-c2ccc(F)cc2)cc1 | –
7 | > 100 | CS(=O)(=O)c1ccc(-c2cc(F)c(F)cc2-c2ccc3c(c2)OCCO3)cc1 | –
8 | > 100 | CS(=O)(=O)c1ccc(-c2cc(Cl)c(Cl)cc2-c2ccc(F)cc2)cc1 | –
9 | > 100 | CS(=O)(=O)c1ccc(-c2nccnc2-c2ccc(F)cc2)cc1 | –
10 | > 100 | COc1c(Cl)cc(-c2cc(F)c(F)cc2-c2ccc(S(C)(=O)=O)cc2)cc1Cl | –
